Assay results: patent US9963467B2, “Boronic acid derivatives and therapeutic uses thereof” (Rempex Pharmaceuticals, Inc., priority 2014, dated 2018)
pKi: −log10 of the molar value.

Legend:
ec302 (TEM-10) [1] = test: Aztreonam potentiation (MPC@4), ec302; assay type: cell-based; settings: BLI with aztreonam at 4 μg/mL
ECL1002 [2] = test: Aztreonam potentiation (MPC@4), ECL1002; assay type: cell-based; settings: BLI with aztreonam at 4 μg/mL
EC1010 (CMY-6) [3] = test: organism not typed; assay type: cell-based
KP1005 (CTX-M-14) = test: Tigemonam potentiation (MPC@4), KP1005; assay type: cell-based; settings: BLI with tigemonam at 4 μg/mL
KP1009 (CTX-M-15) = test: Tigemonam potentiation (MPC@4), KP1009; assay type: cell-based; settings: BLI with tigemonam at 4 μg/mL
ec308 (SHV-5) = test: Tigemonam potentiation (MPC@4), ec308; assay type: cell-based
KP1010 (SHV-12) = test: Tigemonam potentiation (MPC@4), KP1010; assay type: cell-based
ec302 (TEM-10) [4] = test: Tigemonam potentiation (MPC@4), ec302; assay type: cell-based
ECL1002 [5] = test: Tigemonam potentiation (MPC@4), ECL1002; assay type: cell-based; settings: BLI with tigemonam at 4 μg/mL
EC1010 (CMY-6) [6] = test: Tigemonam potentiation (MPC@4), EC1010; assay type: cell-based; settings: BLI with tigemonam at 4 μg/mL
CTX-M-14 = CTX-M-14 (Escherichia coli, UniProt Q9L5C7); test: Ki, nitrocefin cleavage by purified enzyme, CTX-M-14; assay type: biochemical; settings: nitrocefin reporter substrate; read-out: Ki (CTX-M-14, NCF)
Chain of CTX-M-14 (Q9L5C7 29-291): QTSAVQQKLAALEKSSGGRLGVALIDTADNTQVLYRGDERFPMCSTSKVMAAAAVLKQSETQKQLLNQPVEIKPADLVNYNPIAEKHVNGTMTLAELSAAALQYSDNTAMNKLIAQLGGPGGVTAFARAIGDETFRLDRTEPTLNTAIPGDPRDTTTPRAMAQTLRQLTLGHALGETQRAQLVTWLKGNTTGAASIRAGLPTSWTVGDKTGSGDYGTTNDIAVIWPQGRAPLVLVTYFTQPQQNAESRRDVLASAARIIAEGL
Method: (§1) Purified enzymes were mixed with various concentrations of inhibitors in reaction buffer and incubated for 10 min at room temperature. Nitrocefin was added and substrate cleavage profiles were recorded at 490 nm every 10 sec for 10 min.

SHV-12 = SHV-12 (Klebsiella pneumoniae, UniProt P0AD64, E235K/G234S/L31Q); test: Ki, nitrocefin cleavage by purified enzyme, SHV-12; assay type: biochemical; settings: nitrocefin reporter substrate; read-out: Ki (SHV-12, NCF)
Chain of SHV-12 (P0AD64 22-286 L31Q/G234S/E235K): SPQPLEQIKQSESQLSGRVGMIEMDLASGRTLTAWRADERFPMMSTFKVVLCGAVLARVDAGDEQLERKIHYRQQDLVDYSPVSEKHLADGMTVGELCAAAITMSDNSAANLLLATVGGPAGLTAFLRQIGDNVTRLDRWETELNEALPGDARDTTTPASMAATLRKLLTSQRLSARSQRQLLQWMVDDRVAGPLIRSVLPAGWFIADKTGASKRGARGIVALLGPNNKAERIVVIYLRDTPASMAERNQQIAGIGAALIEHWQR
Method: as §1

KPC-2 = KPC-2 (Klebsiella pneumoniae, UniProt Q9F663); test: Ki, nitrocefin cleavage by purified enzyme, KPC-2; assay type: biochemical; settings: nitrocefin reporter substrate; read-out: Ki (KPC-2, NCF)
Chain of KPC-2 (Q9F663 25-293, looked up, species assumed): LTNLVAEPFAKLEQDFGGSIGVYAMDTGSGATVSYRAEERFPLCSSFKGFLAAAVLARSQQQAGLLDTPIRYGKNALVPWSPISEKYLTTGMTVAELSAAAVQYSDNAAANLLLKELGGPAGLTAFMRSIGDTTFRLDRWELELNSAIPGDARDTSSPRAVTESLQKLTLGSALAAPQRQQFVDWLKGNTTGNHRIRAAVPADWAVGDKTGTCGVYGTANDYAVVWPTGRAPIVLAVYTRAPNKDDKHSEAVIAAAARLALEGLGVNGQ
Method: as §1

P99 = P99 (Enterobacter cloacae, UniProt P05364); test: Ki, nitrocefin cleavage by purified enzyme, P99; assay type: biochemical; settings: nitrocefin reporter substrate; read-out: Ki (P99, NCF)
Chain of P99 (P05364 21-381): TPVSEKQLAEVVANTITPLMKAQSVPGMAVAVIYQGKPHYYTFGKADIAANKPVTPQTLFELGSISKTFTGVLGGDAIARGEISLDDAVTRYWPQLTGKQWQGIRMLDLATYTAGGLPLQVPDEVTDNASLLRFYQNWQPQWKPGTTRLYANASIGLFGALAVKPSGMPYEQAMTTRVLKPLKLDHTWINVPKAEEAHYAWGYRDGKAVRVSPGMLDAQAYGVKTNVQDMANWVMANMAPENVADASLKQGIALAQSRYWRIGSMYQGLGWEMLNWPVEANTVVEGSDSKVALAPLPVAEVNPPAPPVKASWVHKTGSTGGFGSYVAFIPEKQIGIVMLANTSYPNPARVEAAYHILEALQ
Method: as §1

Pa AmpC = Pa AmpC (Pseudomonas aeruginosa, UniProt P24735); test: Ki, nitrocefin cleavage by purified enzyme, Pa AmpC; assay type: biochemical; settings: nitrocefin reporter substrate; read-out: Ki (Pa AmpC, NCF)
Chain of Pa AmpC (P24735 27-397): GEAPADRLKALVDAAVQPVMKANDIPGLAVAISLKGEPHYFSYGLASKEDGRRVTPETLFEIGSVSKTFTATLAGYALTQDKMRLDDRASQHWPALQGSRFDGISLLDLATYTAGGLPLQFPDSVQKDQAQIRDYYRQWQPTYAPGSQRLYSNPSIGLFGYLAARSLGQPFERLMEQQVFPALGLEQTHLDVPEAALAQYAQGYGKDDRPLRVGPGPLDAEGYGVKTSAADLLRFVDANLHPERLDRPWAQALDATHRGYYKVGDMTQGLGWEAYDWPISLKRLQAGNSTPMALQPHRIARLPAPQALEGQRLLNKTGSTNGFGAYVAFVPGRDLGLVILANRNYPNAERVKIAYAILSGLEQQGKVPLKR
Method: Ki values of inhibition of purified class A, C and D enzymes were determined spectrophotometrically using nitrocefin as reporter substrate. Purified enzymes were mixed with various concentrations of inhibitors in reaction buffer and incubated for 10 min at room temperature. Nitrocefin was added and substrate cleavage profiles were recorded at 490 nm every 10 sec for 10 min. These experiments confirmed that the described compounds are inhibitors with a broad-spectrum of activity towards various β-lactamases.

OXA-48 = OXA-48 (Klebsiella pneumoniae, UniProt Q6XEC0); test: Ki, nitrocefin cleavage by purified enzyme, OXA-48; assay type: biochemical; settings: nitrocefin reporter substrate; read-out: Ki (OXA-48, NCF)
Chain of OXA-48 (Q6XEC0 23-265, looked up, species assumed): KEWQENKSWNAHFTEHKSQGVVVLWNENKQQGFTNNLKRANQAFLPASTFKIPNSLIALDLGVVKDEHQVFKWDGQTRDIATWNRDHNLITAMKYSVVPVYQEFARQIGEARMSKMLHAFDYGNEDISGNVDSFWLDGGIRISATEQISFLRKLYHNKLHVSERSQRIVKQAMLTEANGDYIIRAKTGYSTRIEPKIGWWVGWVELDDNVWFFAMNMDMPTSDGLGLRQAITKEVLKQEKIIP
Method: as §1

KP1004 (KPC-2) = test: Biapenem potentiation (MPC@1), KP1004; settings: for BPM MPC1 KP1004 KPC-2: BLI with biapenem at 1 μg/mL
KP1086 (OXA-48) = test: Biapenem potentiation (MPC@1), KP1086; settings: for BPM MPC1 OXA-48 KP1086: BLI with biapenem at 1 μg/mL

Row | Structure (SMILES) | AZT MPC4 TEM-10 ec302 (ec302 (TEM-10) [1]) | AZT MPC4 ECL1002 (ECL1002 [2]) | AZT MPC4 CMY-6 EC1010 (EC1010 (CMY-6) [3]) | TIG MPC4 CTX-M-14 KP1005 (KP1005 (CTX-M-14)) | TIG MPC4 CTX-M-15 KP1009 (KP1009 (CTX-M-15)) | TIG MPC4 SHV-5 ec308 (ec308 (SHV-5)) | TIG MPC4 SHV-12 KP1010 (KP1010 (SHV-12)) | TIG MPC4 TEM-10 ec302 (ec302 (TEM-10) [4]) | TIG MPC4 ECL1002 (ECL1002 [5]) | TIG MPC4 CMY-6 EC1010 (EC1010 (CMY-6) [6]) | pKi (CTX-M-14) | pKi (SHV-12) | pKi (KPC-2) | pKi (P99) | pKi (Pa AmpC) | pKi (OXA-48) | BPM MPC1 KP1004 KPC-2 (KP1004 (KPC-2)) | BPM MPC1 OXA-48 KP1086 (KP1086 (OXA-48)) | MIC (KP1004 (KPC-2); read-out: Biapenem MIC KP1004) | MIC (KP1086 (OXA-48); read-out: Biapenem MIC KP1086)
1 | COc1ccc2c(c1C(=O)O)OB(O)[C@@H](NC(=O)CSC(F)F)C2 [Compound 25, (R)-3-(2-(difluoromethylthio)acetamido)-2-hydroxy-7-methoxy-3,4-dihydro-2H-benzo[e][1,2]oxaborinine-8-carboxylic acid] | X (MIC of less than 1 ng/mL) | Y (MIC of 1 μg/mL to 10 μg/mL) | Y (key: X: MIC of less than 1 ng/mL; Y: MIC of 1 μg/mL to 10 μg/mL; Z: MIC of greater than 10 μg/mL) | X (MIC of less than 1 μg/mL) | X (MIC of less than 1 μg/mL) | X (key: X: MIC of less than 1 μg/mL; Y: MIC of 1 μg/mL to 10 μg/mL; Z: MIC of greater than 10 μg/mL) | X (key: X: MIC of less than 1 μg/mL; Y: MIC of 1 μg/mL to 10 μg/mL; Z: MIC of greater than 10 μg/mL) | Y (key: X: MIC of less than 1 ng/mL; Y: MIC of 1 μg/mL to 10 μg/mL; Z: MIC of greater than 10 μg/mL) | X (MIC of less than 1 μg/mL) | X (MIC of less than 1 μg/mL) | > 9.00 | > 9.00 | 8.00 to 9.00 | 8.00 to 9.00 | < 8.00 | > 9.00 | X (MIC of less than 1 μg/mL) | Z (MIC of greater than 10 μg/mL) | – | –
2 | COc1ccc2c(c1C(=O)O)OB(O)[C@@H](NC(=O)CSC1CNC1)C2 [Compound 26, (R)-3-(2-(azetidin-3-ylthio)acetamido)-2-hydroxy-7-methoxy-3,4-dihydro-2H-benzo[e][1,2]oxaborinine-8-carboxylic acid] | Y (MIC of 1 μg/mL to 10 μg/mL) | Y (MIC of 1 μg/mL to 10 μg/mL) | Y (key: X: MIC of less than 1 ng/mL; Y: MIC of 1 μg/mL to 10 μg/mL; Z: MIC of greater than 10 μg/mL) | X (MIC of less than 1 μg/mL) | X (MIC of less than 1 μg/mL) | X (key: X: MIC of less than 1 μg/mL; Y: MIC of 1 μg/mL to 10 μg/mL; Z: MIC of greater than 10 μg/mL) | X (key: X: MIC of less than 1 μg/mL; Y: MIC of 1 μg/mL to 10 μg/mL; Z: MIC of greater than 10 μg/mL) | Y (key: X: MIC of less than 1 ng/mL; Y: MIC of 1 μg/mL to 10 μg/mL; Z: MIC of greater than 10 μg/mL) | X (MIC of less than 1 μg/mL) | X (MIC of less than 1 μg/mL) | > 9.00 | > 9.00 | < 8.00 | < 8.00 | < 8.00 | 8.00 to 9.00 | X (MIC of less than 1 μg/mL) | Y (MIC of 1 μg/mL to 10 μg/mL) | – | –
3 | C[C@@H](O)[C@H]1C(=O)N2C(C(=O)[O-])=C(SC3Cn4cnc[n+]4C3)[C@H](C)[C@H]12 (some centres unmarked) [Biapenem, reference compound] | – | – | – | – | – | – | – | – | – | – | – | – | – | – | – | – | – | – | > 10 µg/mL | > 10 µg/mL
